# From PMC6409966 (2019)
# Tested on: thiolated MG binding aptamer (RNA, aptamer) GGAUCCCGACUGGCGAGAGCCAGGUAACGAAUGGAUCC
# Assay: cyclic voltammetry / DPV of captured MG on aptamer electrode; EIS
# Settings: Na+ / K+ (Na2HPO4/KH2PO4 buffer); phosphate buffer pH 7.4, room temperature, 2 h; 1.0 and 10 μM MG; immobilised aptamer
smiles,measurement,value
CN(C)c1ccc(C(=C2C=CC(=[N+](C)C)C=C2)c2ccccc2)cc1,binding,yes
